Measured values published in patent US11234943B2, “Use of reservatrol for the treatment of non-alcoholic fatty liver disease (NAFLD)” (priority 2016, dated 2022).
“And” between values parts separate entries of the source, which are not always exact repeats. Equal values may be shown once.

Legend:
[1] = tested on: patients with NAFLD; test: Quantitative ultrasound liver/kidney echo measurement (liver fat), hepatic/renal value; format: in vivo, human; design: key to Difference (Liver Value − Kidney Value): hepatic minus renal cortex mean gray scale (US hepatic/renal value); key to Liver Value / Kidney Value: mean gray scale value of pixels within the ROI (echo intensity)
Text: A GE Log IQ5 expert Ultrasound Machine equipped with Ultrasound Transducer Probe (GE 3.5C model 2050357) The equipment can measure the Echo Level (EL) at specific areas and depths. EL measures the mean intensity of pixels within a user defined area (region of interest). Raw data provides the average sum (intensity per pixel)/pixels. The ultrasound depicts on screen the area (in cm^2), mean (intensity dB) and standard deviation (dispersion) Phantom Model 040GSE (CIRS-Multi Purpose, Multi Tissue u/s Phantom) to calibrate the Log IQ. The specific phantom simulates the human liver and kidney organs and serves for calibration.
Regarding the parameters “liver/kidney value” and “liver/kidney depth” we used the same methodology used by Ming-Feng Xia et al., Standardized Ultrasound Hepatic/Renal Ratio and Hepatic Attenuation Rate to Quantify Liver Fat Content: An Improvement Method 10.1038/oby.2011.302.
Ultrasound studies were performed by an experienced radiologist who was unaware of the patient's clinical details and laboratory findings. All the instrument settings, including gain and depth were fixed for each measurement. For assessment of ultrasound hepatic/renal echo value, ultrasound images with both liver and right kidney clearly visualized were obtained in the sagittal liver/right kidney view in the lateral position. A region of interest (ROI) was carefully selected excluding blood vessels, bile ducts and other focal hypoechoic or hyperechoic regions. Another ROI was identified in the right renal cortex with no large vessels, renal sinus or medulla. To avoid the interference of depth-depended echo-intensity attenuation and the borderline echo distorting effects, the boundary between liver and right kidney area should be placed near the center of the image, and the liver and right kidney ROIs were selected at the same depth of the ultrasound images. The gray scale mean value of the pixels within the two ROIs was used as measurement of echo intensity then we subtracted the average hepatic gray scale by the average renal cortex gray scale to calculate the US hepatic/renal value.
Standardization of ultrasound quantitative parameters was performed using an abdominal phantom.
Attenuation measurements were taken at 2 depths, at the Regions of Interest (ROI) xxcm (liver) and yycm (kidney). Attenuation was calculated by subtracting the EL (liver)−EL (kidney)=Hepato-Renal Index Difference.
In sagittal liver/right kidney view, a region of interest (ROI) of 1.5×1.5 cm (1,296 pixels) in the liver parenchyma was selected. The ROI had to be as uniform as possible, excluding blood vessels, bile ducts, and other focal hypo/hyper-echogenicity. Another ROI of 0.5×0.5 cm (144 pixels) was identified in the right renal cortex with no large vessels, renal sinus or medulla. To avoid the interference of depth-depended echo-intensity attenuation and the borderline echo distorting effects, the boundary between liver and right kidney area should be placed near the center of the image, and the liver and right kidney ROIs were selected at the same depth of the ultrasound images. The gray scale mean value of the pixels within the two ROIs was used as measurement of echo intensity. Then we subtracted the average hepatic gray scale by the average renal cortex gray scale to calculate the US hepatic/renal value.
To standardize the measured values of US H/R value and hepatic echo-intensity attenuation rate among different ultrasound machines, a 3D abdominal phantom, containing mimic abdominal organs, was used for standardization in this research.
Then, the patients were divided into two groups (randomly assigned) according to the treatment given to them. 22 patients were given treatment 50 mg RSV micronized formulation, Evelor capsules once daily, (Group A) and 22 patients were given treatment 200 mg RSV micronized formulation, Evelor capsules, once daily, (Group B). The observation period lasted for 6 months. […]

[2] = tested on: patients with NAFLD; test: Blood tests in 6-month study of NAFLD patients given resveratrol micronized formulation; format: in vivo, human; design: unit not given here
Method: In this study. 50 mg or 200 mg RSV daily were supplemented to the standard treatment of 44 patients with NAFLD for a period of 6 months and the therapeutic efficacy of RSV was investigated. All patients who participated in this process were volunteers and they have provided written consents as well filled out all the required documents. The patients were selected after they were firstly diagnosed with non-alcoholic fatty liver disease. The primary inclusion criterion was evidence of tatty liver on ultrasonography (LS), which is the most commonly, used imaging technique with remarkable sensitivity. The US findings in non-alcoholic fatty liver disease are:
Participants underwent clinical examination, electrocardiogram and abdominal ultrasound. Also, blood tests were carried out and the following parameters were measured: serum glutamic pyruvic transaminase (SGPT), serum glutamic oxaloacetic transaminase (SGOT), Alkaline phosphatase (ALP), gamma-glutamyl transpeptidase (gGT), glucose, total cholesterol levels, high-density lipoprotein (HDL), low-density lipoprotein (LDL), triglycerides (TG), insulin, insulin resistance, liver value, liver depth, kidney value, kidney depth and difference liver-kidney values.
(§1) Then, the patients were divided into two groups (randomly assigned) according to the treatment given to them. 22 patients were given treatment 50 mg RSV micronized formulation, Evelor capsules once daily, (Group A) and 22 patients were given treatment 200 mg RSV micronized formulation, Evelor capsules, once daily, (Group B). The observation period lasted for 6 months. There was a clinical examination, blood tests and an abdominal ultrasound at the beginning of the study (time 1) and in 6 months (time 2). All patients were on low fat diet and they were being followed up by nutritionist.
Two-way ANOVA with interaction (time and group) was used to test whether there are differences among dose levels, time levels and possible interaction among them. However, no significant interactions were discovered and standard two-way ANOVA was used without interactions. Moreover, an independent t-test was conducted to examine whether there were any differences between the values of physiological parameters at the beginning and the end of the study. A p-value<0.001 was considered to indicate a strongly statistically significant difference. The statistical program used was R 3.2.1.

[3] = tested on: patients with NAFLD; test: Adverse reactions during the 6-month study; format: in vivo, human; settings: 50 mg or 200 mg once daily, 6 months
Method: Quantitative fat measurement, with ultrasound on the liver and kidney, were carried out. There was an initial measurement (time 1) and one after six months (time 2). […] As will be apparent, the results were highly positive, see the difference (Liver value Kidney Value) which is decreased during the time, even 2.5 years after the end of the study.
as §1

[4] = tested on: NAFLD patients; settings: meta-analysis of four trials, 156 patients, cited from earlier work
[5] = tested on: subjects with non-alcoholic fatty liver disease; settings: two 150 mg capsules twice daily for three months, cited from earlier work
[6] = Group A, 50 mg once daily, mean at time 1 (beginning of study)
[7] = Group A, 50 mg once daily, mean at time 2 (6 months)
[8] = Group B, 200 mg once daily, mean at time 1 (beginning of study)
[9] = Group B, 200 mg once daily, mean at time 2 (6 months)
[10] = individual patients of Group A (50 mg), first ultrasound, 0 month
[11] = individual patients of Group A (50 mg), fourth ultrasound, 2.5 years from the end of the study
[12] = individual patients of Group A (50 mg), second ultrasound, 6 months
[13] = individual patients of Group A (50 mg), third ultrasound, 6 months after the end of the study
[14] = individual patients of Group B (200 mg), first ultrasound, 0 month
[15] = individual patients of Group B (200 mg), fourth ultrasound, 2.5 years from the end of the study
[16] = individual patients of Group B (200 mg), second ultrasound, 6 months
[17] = individual patients of Group B (200 mg), third ultrasound, 6 months after the end of the study

With Oc1ccc(/C=C/c2cc(O)cc(O)c2)cc1 [Resveratrol, resveratrol] the “Difference L − K value” [1, 6] was 22.71, the Kidney Value [1, 6] was 32.49 and the “Liver Value” [1, 6] was 55.20. For the same molecule, the “Difference L − K value” [1, 7] was 17.00, the Kidney Value [1, 7] was 28.42 and the “Liver Value” [1, 7] was 45.42. The “Difference L − K value” [1, 8] was 26.46, the Kidney Value [1, 8] was 32.30 and the “Liver Value” [1, 8] was 58.77. For the same molecule, the “Difference L − K value” [1, 9] was 18.115, the Kidney Value [1, 9] was 25.21 and the “Liver Value” [1, 9] was 43.33. The “liver fat as evidenced by ultrasound measurements” value ([1]; groups A and B, end of the study) was “strongly statistically significant reduction”, the “Difference (Liver Value − Kidney Value)” value [1, 10] was 14.6 and 32.9 and 20.1 and 23.3 and 43.7 and 34.3 and the “Kidney Value” [1, 10] was 30.4 and 35.0 and 25.3 and 32.6 and 52.4 and 7.0. For the same molecule, the “Liver Value” [1, 10] was 45.0 and 67.9 and 45.4 and 55.9 and 96.1 and 41.3, the “Difference (Liver Value − Kidney Value)” value [1, 11] was 5.5 and 9.8 and the “Kidney Value” [1, 11] was 75.0 and 75.2. The “Liver Value” [1, 11] was 80.5 and 85.0, the “Difference (Liver Value − Kidney Value)” value [1, 12] was 12.8 and 29.5 and 11.8 and 19 and 18.5 and 20.9 and the “Kidney Value” [1, 12] was 29.2 and 26.4 and 20.1 and 30.8 and 26.5 and 21.0. The “Liver Value” [1, 12] was 42.0 and 55.9 and 31.9 and 49.8 and 45.0 and 41.9, the “Difference (Liver Value − Kidney Value)” value [1, 13] was 16.7 and 10.3 and 24.4 and 1.6 and 17.6 and 9.4 and the “Kidney Value” [1, 13] was 81.1 and 60.0 and 64.5 and 57.3 and 67.6 and 48.1. The “Liver Value” [1, 13] was 97.8 and 70.3 and 88.9 and 58.9 and 85.2 and 57.5, the “Difference (Liver Value − Kidney Value)” value [1, 14] was 28.2 and 35.5 and 32.3 and 47.3 and 24.1 and 20.5 and 41 and 18.8 and the “Kidney Value” [1, 14] was 32.2 and 26.5 and 23.6 and 39.5 and 22.7 and 14.2 and 28.6 and 33.3. For the same molecule, the “Liver Value” [1, 14] was 60.4 and 62.0 and 55.9 and 86.8 and 46.8 and 34.7 and 69.6 and 52.1, the “Difference (Liver Value − Kidney Value)” value [1, 15] was 7.9 and 5 and 17.3 and the “Kidney Value” [1, 15] was 31.2 and 41.0 and 42.8. The “Liver Value” [1, 15] was 39.1 and 46.0 and 60.1, the “Difference (Liver Value − Kidney Value)” value [1, 16] was 14.8 and 23.9 and 19 and 34.2 and 22.2 and 7.4 and 33.5 and 16.4 and the “Kidney Value” [1, 16] was 33.0 and 22.1 and 31.1 and 18.9 and 14.4 and 42.4 and 17.0 and 16.8. For the same molecule, the “Liver Value” [1, 16] was 47.8 and 46.0 and 50.1 and 53.1 and 36.6 and 49.8 and 50.5 and 33.2, the “Difference (Liver Value − Kidney Value)” value [1, 17] was 13.2 and 8.9 and 22.1 and 10 and 18.3 and 13.7 and 6 and 16.8 and the “Kidney Value” [1, 17] was 61.7 and 53.0 and 55.2 and 84.3 and 55.9 and 71.5 and 75.3 and 40.4. For the same molecule, the “Liver Value” [1, 17] was 74.9 and 61.9 and 77.3 and 94.3 and 74.2 and 85.2 and 81.3 and 57.2, the ALP [2, 6] was 63.63 and the CH [2, 6] was 194.50. The GLU [2, 6] was 105.95, the HDL [2, 6] was 48.60 and the Insulin [2, 6] was 13.58. For the same molecule, the “Insulin Resistance” value [2, 6] was 1405.81, the LDL [2, 6] was 119.45 and the SGOT [2, 6] was 24.95. It also gave an SGPT [2, 6] of 36.09, a TG [2, 6] of 132.50 and a gGT [2, 6] of 30.95. The ALP [2, 7] was 59.23, the CH [2, 7] was 185.67 and the GLU [2, 7] was 96.57. For the same molecule, the HDL [2, 7] was 47.67, the Insulin [2, 7] was 12.69 and the “Insulin Resistance” value [2, 7] was 1226.04. The LDL [2, 7] was 116.19, the SGOT [2, 7] was 26.33 and the SGPT [2, 7] was 37.24. For the same molecule, the TG [2, 7] was 109.76, the gGT [2, 7] was 27.00 and the ALP [2, 8] was 74.50. It also gave a CH [2, 8] of 194.27, a GLU [2, 8] of 121.18 and an HDL [2, 8] of 41.14. For the same molecule, the Insulin [2, 8] was 12.62, the “Insulin Resistance” value [2, 8] was 1541.04 and the LDL [2, 8] was 118.75. The SGOT [2, 8] was 32.81, the SGPT [2, 8] was 47.05 and the TG [2, 8] was 205.13. For the same molecule, the gGT [2, 8] was 29.20, the ALP [2, 9] was 71.20 and the CH [2, 9] was 181.15. The GLU [2, 9] was 112.50, the HDL [2, 9] was 41.70 and the Insulin [2, 9] was 13.01. The “Insulin Resistance” value [2, 9] was 1489.52, the LDL [2, 9] was 105.95 and the SGOT [2, 9] was 30.90. For the same molecule, the SGPT [2, 9] was 41.70, the TG [2, 9] was 167.80 and the gGT [2, 9] was 25.35. For the same molecule, the “adverse reactions (side effects)” value [3] was “No adverse reactions (side effects) were noted”, the “total cholesterol, mean difference (MD) vs placebo” value ([4]; 95% CI: 0.18, 0.80, higher in resveratrol groups) was 0.49 and the “low-density lipoprotein, mean difference (MD) vs placebo” value ([4]; 95% CI: 0.21, 0.74, higher in resveratrol groups) was 0.47. The “effects on attenuating NAFLD” value [4] was “negligible effects”, the alanine aminotransferase ([5]; compared with placebo group) was “significantly decreased” and the aspartate aminotransferase ([5]; compared with placebo group) was “significantly decreased”. The glucose ([5]; compared with placebo group) was “significantly decreased”, the “homeostasis model assessment insulin resistance index” value ([5]; compared with placebo group) was “significantly decreased” and the low-density lipoprotein cholesterol ([5]; compared with placebo group) was “significantly decreased”. For the same molecule, the total cholesterol ([5]; compared with placebo group) was “significantly decreased”, the adiponectin level ([5]; resveratrol group) was “elevation” and the “level of TNF-α” value ([5]; resveratrol group) was “significant reductions”. For the same molecule, the “level of cytokeratin 18 fragment” value ([5]; resveratrol group) was “significant reductions” and the “level of fibroblast growth factor” value ([5]; resveratrol group) was “significant reductions”.
